Where a SMILES comes first, the peptide text is derived from it.
Tests used:
adult male rats = details: PCT patent application WO 01/00 221; cited from earlier work
[1] = target: T1, purified rabbit kidney NEP (Oryctolagus cuniculus, UniProt P08049); assay: Direct interaction with purified rabbit kidney NEP in vitro; type: binding
T1 construct: using purified rabbit kidney NEP; from tissue; host or cells: rabbit kidney
T1 sequence (P08049 1-750): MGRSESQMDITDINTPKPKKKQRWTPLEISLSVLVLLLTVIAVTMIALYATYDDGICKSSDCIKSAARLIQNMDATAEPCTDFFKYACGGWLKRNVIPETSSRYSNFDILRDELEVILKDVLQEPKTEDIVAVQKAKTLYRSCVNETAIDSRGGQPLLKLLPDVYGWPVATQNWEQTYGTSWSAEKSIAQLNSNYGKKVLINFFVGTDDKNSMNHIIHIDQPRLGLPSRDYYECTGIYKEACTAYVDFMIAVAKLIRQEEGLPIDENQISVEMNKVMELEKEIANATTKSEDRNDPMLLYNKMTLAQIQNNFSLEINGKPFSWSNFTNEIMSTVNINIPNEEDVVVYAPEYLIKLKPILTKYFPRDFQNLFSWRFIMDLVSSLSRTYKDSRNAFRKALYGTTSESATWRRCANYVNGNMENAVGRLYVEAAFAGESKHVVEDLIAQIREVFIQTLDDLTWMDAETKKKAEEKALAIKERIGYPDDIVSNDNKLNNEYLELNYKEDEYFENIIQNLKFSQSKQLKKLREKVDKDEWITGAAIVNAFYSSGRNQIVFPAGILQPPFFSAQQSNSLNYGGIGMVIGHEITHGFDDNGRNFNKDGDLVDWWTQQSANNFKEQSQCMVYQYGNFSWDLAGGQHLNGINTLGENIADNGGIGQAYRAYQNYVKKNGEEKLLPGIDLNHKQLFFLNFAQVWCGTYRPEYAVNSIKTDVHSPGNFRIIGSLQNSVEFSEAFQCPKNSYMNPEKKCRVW

[2] = Tissue uptake of SMR1-Pentapeptide in vivo; design: species or system rat

Compound: N=C(N)NCCC[C@H](NC(=O)[C@@H]1CCCN1C(=O)[C@H](CC(N)=O)NC(=O)[C@H](Cc1c[nH]cn1)NC(=O)[C@@H](N)CCC(N)=O)C(=O)O [SMR1-QHNPR, QHNPR] (H-QHNPR-OH; N-terminus and C-terminus assumed)
- effect on sexual behavior and aggressive impulse behavior (adult male rats): dose-dependent improvement on the sexual behavior of adult male rats with a loss of the aggressive impulse behavior
- direct interaction with NEP [1]: direct interaction of rat kidney NEP and SMR1-Pentapeptide was demonstrated
- stability of tissue uptake [2]: pharmacokinetically and biochemically stable in vivo

— US7423020B2, “Treatment of mood disorders by administration of SMR1” (Institut Pasteur, priority 2001, dated 2008)
